Test results published in patent US10640457B2, “Histone acetyltransferase activators and uses thereof” (The Trustees of Columbia University in the City of New York, priority 2009, dated 2020).
Where “and” joins values, the source holds several entries; their conditions need not be identical. Equal values may be shown once. Entries after “also recorded” stand apart in the source; their conditions may differ.

Legend:
HDAC1 = HDAC1 (Homo sapiens, UniProt Q13547); assay: HDAC1 fluorogenic activity assay; settings: for % Activity: Repeat1/Repeat2, listed as OA2
Aβ42-treated slices = assay: LTP in Aβ42-treated hippocampal slices (YF2); settings: 200 nM Aβ42-treated slices; YF2 1 μM for 30 min prior to the θ-burst
Method: Next, we checked if YF2 could attenuate synaptic and cognitive dysfunction after Aβ elevation. […] Next, we induced LTP or contextual fear memory as well as reference memory in the presence of oligomeric Aβ42, or vehicle. In the LTP experiments 200 nM Aβ42 or vehicle were perfused through the bath solution for 20 min prior to the application of the θ-burst. In the behavioral experiments 200 nM Aβ42 (in a final volume of 1 μl over 1 min) or vehicle were bilaterally infused 15 min prior to the foot shock or 15 min prior to the 1st trial (for the 1st group of tests in a 2-day radial arm water maze (RAWM) test assessing reference memory^[P34] (herein incorporated by reference in its entirety)) and 15 min prior to the 7th trial (for the 2nd group of tests of the RAWM) into dorsal hippocampus of the animal that had been pre-implanted with a cannula the week before. Aβ reduced LTP and both reference and contextual fear memory (FIG. 66).

p300 = biological target: T1, p300 (Homo sapiens, UniProt Q09472); assay: In vitro HAT activation assay, p300; type: biochemical; settings: in vitro assays; FIG. 72
T1 construct: we will use the catalytic domain of human CBP, PCAF, p300 and GCNS (Enzo Life Sci., USA); purchased Enzo Life Sci
Description: Compounds will be tested for HAT activator activity first, using the HAT Assay kit from Active Motif (USA, CA). For this assay, we will use the catalytic domain of human CBP, PCAF, p300 and GCNS (Enzo Life Sci., USA). The catalytic domains for the remaining HATs will be produced using New England Biolabs K. lactis Protein Expression Kit. […] When assayed against all other HATs, they must show at least a 50 fold greater potency towards CBP and/or PCAF.

Sirtuin 2 = biological target: T2, Sirtuin 2 (Homo sapiens, UniProt Q8IXJ6); assay: Sirtuin 2 fluorogenic activity assay; settings: for % Activity: Repeat1/Repeat2, listed as OA2
T2 sequence (Q8IXJ6 1-389): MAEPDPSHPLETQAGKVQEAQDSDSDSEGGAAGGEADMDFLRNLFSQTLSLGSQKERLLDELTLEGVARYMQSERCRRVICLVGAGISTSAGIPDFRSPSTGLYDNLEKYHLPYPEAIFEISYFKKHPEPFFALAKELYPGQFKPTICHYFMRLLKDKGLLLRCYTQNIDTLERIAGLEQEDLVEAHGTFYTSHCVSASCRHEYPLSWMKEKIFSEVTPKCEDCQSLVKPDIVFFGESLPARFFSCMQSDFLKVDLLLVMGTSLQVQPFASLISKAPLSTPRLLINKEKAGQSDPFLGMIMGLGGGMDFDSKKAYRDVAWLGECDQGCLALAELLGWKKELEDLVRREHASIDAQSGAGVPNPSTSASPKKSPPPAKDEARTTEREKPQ

HDAC5FL = HDAC5FL (Homo sapiens, UniProt Q9UQL6); assay: HDAC5FL fluorogenic activity assay; settings: Repeat1/Repeat2, listed as OA2
Aβ-infused mice = assay: Contextual and cued fear conditioning in Aβ42-infused mice (TSA); type: in vivo
Description: HDAC inhibition rescues the defect in associative memory by Aβ elevation. The APP and PS1 transgenes could affect neuronal function through different mechanisms [B23, B24] (each herein incorporated by reference in its entirety), including direct effects by Aβ. Full-length APP and its cleavage products could differently impact H4 acetylation. To separate Aβ effects from other effects of APP and PS1 overexpression, we next determined whether Aβ per se is responsible for the deficit in H4 acetylation observed in our studies on transgenic mice. […] (each herein incorporated by reference in its entirety), we applied a preparation containing oligomeric Aβ42 (200 nM in a volume of […], slowly over 1 min) into dorsal hippocampi (FIG. 24A-B), 15 min prior to training for fear conditioning, with injection of TSA or vehicle (2 mg/kg body weight, 2 hrs prior to training, i.p.). Infusion occurred 5-7 days after implanting cannulas onto dorsal hippocampi. We found no difference in the freezing behavior among the 4 groups of mice during the training phase of the fear conditioning (F3,41=0.04188, p=0.9884, n=8-14/group; FIG. 24C). Twenty-four hours later, freezing behavior was decreased in Aβ-infused mice compared to vehicle-infused mice in the analysis of the contextual learning (F3,41=3.619, p=0.0209, n=8-14/group; FIG. 24C). Freezing in Aβ-infused mice was about 25% that of vehicle-infused mice [Aβ-infused mice: 8.580±2.119% vs. vehicle-infused mice: 31.46±5.373% n=12 and 11 males, respectively; t=3.147, p=0.0049; FIG. 24C].

Sequence of HDAC5FL (Q9UQL6 whole entry, the tested form may be a part): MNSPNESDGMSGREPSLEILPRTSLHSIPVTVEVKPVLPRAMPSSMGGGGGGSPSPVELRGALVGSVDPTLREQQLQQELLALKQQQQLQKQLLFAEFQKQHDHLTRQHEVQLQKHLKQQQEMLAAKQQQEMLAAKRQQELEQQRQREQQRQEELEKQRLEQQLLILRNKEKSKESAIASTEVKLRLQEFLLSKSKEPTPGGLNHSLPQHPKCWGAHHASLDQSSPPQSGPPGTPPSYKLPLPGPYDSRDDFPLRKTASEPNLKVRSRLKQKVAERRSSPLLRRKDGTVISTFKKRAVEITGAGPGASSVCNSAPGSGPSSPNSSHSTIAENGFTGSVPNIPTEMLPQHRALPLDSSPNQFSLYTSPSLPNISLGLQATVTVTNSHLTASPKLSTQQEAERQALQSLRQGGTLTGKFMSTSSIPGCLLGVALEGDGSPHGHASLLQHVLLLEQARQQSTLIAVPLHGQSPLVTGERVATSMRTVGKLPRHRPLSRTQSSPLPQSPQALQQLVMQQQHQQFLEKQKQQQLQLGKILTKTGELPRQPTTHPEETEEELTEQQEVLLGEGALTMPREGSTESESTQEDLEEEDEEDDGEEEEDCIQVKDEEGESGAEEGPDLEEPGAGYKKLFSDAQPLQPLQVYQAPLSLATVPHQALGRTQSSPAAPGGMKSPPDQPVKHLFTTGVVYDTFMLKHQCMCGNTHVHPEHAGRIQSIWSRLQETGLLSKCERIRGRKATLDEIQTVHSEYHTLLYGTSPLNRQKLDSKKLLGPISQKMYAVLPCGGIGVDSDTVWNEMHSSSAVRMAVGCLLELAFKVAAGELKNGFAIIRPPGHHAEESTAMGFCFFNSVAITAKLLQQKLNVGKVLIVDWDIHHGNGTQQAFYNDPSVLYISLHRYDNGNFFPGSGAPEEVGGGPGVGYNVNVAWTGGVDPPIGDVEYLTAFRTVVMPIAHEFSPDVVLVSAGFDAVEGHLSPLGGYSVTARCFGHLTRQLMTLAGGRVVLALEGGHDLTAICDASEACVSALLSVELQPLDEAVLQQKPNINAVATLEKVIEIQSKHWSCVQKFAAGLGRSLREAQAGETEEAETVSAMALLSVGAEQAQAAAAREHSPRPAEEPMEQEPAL
Sequence of HDAC1 (Q13547 whole entry): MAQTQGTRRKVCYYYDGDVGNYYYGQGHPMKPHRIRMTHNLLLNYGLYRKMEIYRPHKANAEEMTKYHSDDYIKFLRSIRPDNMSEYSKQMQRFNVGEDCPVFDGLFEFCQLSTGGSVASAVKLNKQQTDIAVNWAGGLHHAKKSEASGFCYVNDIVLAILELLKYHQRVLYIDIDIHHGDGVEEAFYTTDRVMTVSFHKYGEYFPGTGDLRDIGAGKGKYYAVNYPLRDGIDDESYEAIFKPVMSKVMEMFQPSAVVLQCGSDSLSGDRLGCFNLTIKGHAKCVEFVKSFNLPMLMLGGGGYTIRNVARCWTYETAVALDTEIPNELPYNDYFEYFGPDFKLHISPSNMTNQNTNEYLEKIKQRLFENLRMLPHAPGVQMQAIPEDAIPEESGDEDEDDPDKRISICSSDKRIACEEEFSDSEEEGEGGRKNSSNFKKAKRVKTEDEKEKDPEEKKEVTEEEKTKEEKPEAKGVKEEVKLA
T1 sequence (Q09472 1287-1663 limits assumed): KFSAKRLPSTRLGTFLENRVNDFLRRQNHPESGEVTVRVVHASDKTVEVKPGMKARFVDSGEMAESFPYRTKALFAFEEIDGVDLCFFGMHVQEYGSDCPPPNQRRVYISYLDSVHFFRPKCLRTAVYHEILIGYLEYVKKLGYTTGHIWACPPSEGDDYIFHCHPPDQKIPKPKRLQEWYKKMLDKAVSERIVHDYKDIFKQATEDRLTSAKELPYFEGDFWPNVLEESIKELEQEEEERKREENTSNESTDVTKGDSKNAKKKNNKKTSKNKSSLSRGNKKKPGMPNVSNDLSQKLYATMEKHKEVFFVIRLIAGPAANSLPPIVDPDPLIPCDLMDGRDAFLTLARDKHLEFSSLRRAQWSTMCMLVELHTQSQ

CCOc1cccc(OCCN(C)C)c1C(=O)Nc1ccc(Cl)c(C(F)(F)F)c1 [YF2]
IC50 (HDAC1): > 200 µM | % Activity (HDAC1; OA2 Log[nM] 0.5): 98.80% and 98.28% | % Activity (HDAC1; OA2 Log[nM] 1.0): 97.64% and 98.21% | % Activity (HDAC1; OA2 Log[nM] 1.5): 96.72% and 97.14% | % Activity (HDAC1; OA2 Log[nM] 2.0): 96.42% and 96.10% | % Activity (HDAC1; OA2 Log[nM] 2.5): 95.81% and 97.49% | % Activity (HDAC1; OA2 Log[nM] 3.0): 96.63% and 95.68% | % Activity (HDAC1; OA2 Log[nM] 3.5): 93.12% and 97.60% | % Activity (HDAC1; OA2 Log[nM] 4.0): 91.35% and 92.53% | % Activity (HDAC1; OA2 Log[nM] 4.5): 92.01% and 90.19% | % Activity (HDAC1; OA2 Log[nM] 5.3): 63.73% and 61.76% | LTP deficit (Aβ42-treated slices): ameliorated; also recorded: rescues | effect on p300 activity (p300): did not interfere; also recorded: increases p300 activity | IC50 (Sirtuin 2): > 200 µM | % Activity (Sirtuin 2; OA2 Log[nM] 0.5): 97.71% and 101.89% | % Activity (Sirtuin 2; OA2 Log[nM] 1.0): 96.21% and 97.38% | % Activity (Sirtuin 2; OA2 Log[nM] 1.5): 98.59% and 101.33% | % Activity (Sirtuin 2; OA2 Log[nM] 2.0): 94.20% and 99.91% | % Activity (Sirtuin 2; OA2 Log[nM] 2.5): 94.74% and 96.43% | % Activity (Sirtuin 2; OA2 Log[nM] 3.0): 94.53% and 98.73% | % Activity (Sirtuin 2; OA2 Log[nM] 3.5): 96.80% and 98.23% | % Activity (Sirtuin 2; OA2 Log[nM] 4.0): 97.71% and 98.83% | % Activity (Sirtuin 2; OA2 Log[nM] 4.5): 92.45% and 95.14% | % Activity (Sirtuin 2; OA2 Log[nM] 5.3): 98.64% and 99.53% | % Activity (HDAC5FL; OA2 Log[nM] 0.5): 99.80% and 92.90% | % Activity (HDAC5FL; OA2 Log[nM] 1.0): 102.59% and 97.50% | % Activity (HDAC5FL; OA2 Log[nM] 1.5): 103.20% and 104.10% | % Activity (HDAC5FL; OA2 Log[nM] 2.0): 108.64% and 106.80% | % Activity (HDAC5FL; OA2 Log[nM] 2.5): 108.60% and 107.17% | % Activity (HDAC5FL; OA2 Log[nM] 3.0): 105.76% and 99.80% | % Activity (HDAC5FL; OA2 Log[nM] 3.5): 101.30% and 99.30% | % Activity (HDAC5FL; OA2 Log[nM] 4.0): 104.91% and 104.82% | % Activity (HDAC5FL; OA2 Log[nM] 4.5): 95.40% and 94.11% | % Activity (HDAC5FL; OA2 Log[nM] 5.3): 68.63% and 94.13%

CC(/C=C/C(=O)NO)=C\[C@@H](C)C(=O)c1ccc(N(C)C)cc1 [TSA, trichostatin A]
freezing time relative to Aβ-infused mice (Aβ-infused mice; Aβ-infused mice injected with TSA): about 300% | deficit in freezing responses in Aβ-infused mice (Aβ-infused mice; TSA i.p. 2 hrs before training): ameliorates | freezing, contextual fear conditioning 24 hrs after training (Aβ-infused mice; TSA+Aβ treated mice, TSA 2 mg/kg i.p. 2 hrs prior to training, Aβ42 200 nM): 26.17±4.747% | freezing, contextual fear conditioning 24 hrs after training (Aβ-infused mice; TSA-treated, vehicle-infused mice): 27.01±7.246% | cued fear conditioning, freezing among the 4 groups (Aβ-infused mice; pre-CS and CS): did not find a difference
